One assay is filed under the species Bos taurus. Description: Inhibition of bovine pancreas trypsin at 0.01 to 8 uM using N-alpha-benzoyl-L-arginine-pnitroanilide substrate preincubated for 15 mins followed by substrate addition and measured after 30 mins. Type of assay: tissue-based. The conditions noted are these: dose microM 0.01-8, time 45.0 min.
A short description of assay [1]: Inhibition of bovine pancreas trypsin using N-alpha-benzoyl-L-arginine-pnitroanilide substrate preincubated for 15 mins followed by substrate addition and measured after 30 mins. Type of assay: tissue-based, Bos taurus.

Active and inactive are the calls of the source. The rule behind the calls is not given here. Bridge positions count the residues as written; N and C are the ends. Square brackets hold non-standard residues; d marks the D form. Peptide text beside a SMILES is read from it. pGlu = O=C1CC[C@@H](C(=O)O)N1

In the case of `CC[C@H](C)[C@H](NC(=O)[C@H](CCC(=O)O)NC(=O)[C@@H](NC(=O)[C@H](CCC(=O)O)NC(=O)[C@H](CCCCN)NC(=O)[C@@H]1CCC(=O)N1)[C@@H](C)O)C(=O)N[C@H]1CSSC[C@@H](C(=O)N[C@@H](CCC(=O)O)C(=O)N[C@@H](CCC(=O)O)C(=O)N[C@@H](CCCNC(=N)N)C(=O)N[C@@H](CC(C)C)C(=O)N[C@@H](CCCNC(=N)N)C(=O)N[C@@H](CC(=O)O)C(=O)O)NC(=O)[C@H](CCC(=O)O)NC(=O)[C@H](CCC(N)=O)NC(=O)[C@H](CCC(N)=O)NC(=O)[C@@H]2CSSC[C@H](NC(=O)[C@H](Cc3c[nH]c4ccccc34)NC(=O)[C@H](CCC(N)=O)NC(=O)[C@H](CCCNC(=N)N)NC1=O)C(=O)N[C@@H](CCC(N)=O)C(=O)N[C@@H](C(C)C)C(=O)N[C@@H](CCSC)C(=O)N[C@@H](CCCCN)C(=O)N1CCC[C@H]1C(=O)N[C@@H](CCC(N)=O)C(=O)NCC(=O)NCC(=O)N[C@@H](CCC(=O)O)C(=O)N[C@@H](CCC(=O)O)C(=O)N[C@@H](CCC(N)=O)C(=O)N[C@@H](CCCNC(=N)N)C(=O)N[C@@H](CCCNC(=N)N)C(=O)N2` ([pGlu]KETEICRQWCQVMKPQGGEEQRRCQQECEERLRD-OH; disulfide 7-29, 11-25), the inhibition entry in the assay listed under Bos taurus was “inactive”. Broadly, the IC50 is the midpoint of a concentration-inhibition curve. The low end stands for higher potency, the high end for lower potency. Turning to `CSCC[C@@H]1NC(=O)[C@H](C(C)C)NC(=O)[C@H](CCCCN)NC(=O)[C@@H](NC(=O)[C@H](CCC(N)=O)NC(=O)[C@H](CCC(=O)O)NC(=O)[C@@H]2CCCN2C(=O)[C@H](CC(=O)O)NC(=O)[C@@H](NC(=O)[C@@H](N)CC(N)=O)[C@@H](C)O)CSSC[C@@H](C(=O)N[C@@H](CCC(=O)O)C(=O)N[C@@H](CCCCN)C(=O)N[C@@H](CCC(=O)O)C(=O)N[C@@H](Cc2c[nH]cn2)C(=O)N[C@@H](CC(=O)O)C(=O)O)NC(=O)[C@H](CCC(N)=O)NC(=O)[C@H](CC(=O)O)NC(=O)[C@H](CC(C)C)NC(=O)[C@@H]2CSSC[C@H](NC1=O)C(=O)N[C@@H](Cc1ccc(O)cc1)C(=O)N[C@@H](C)C(=O)N[C@@H](CCC(N)=O)C(=O)N[C@@H](CCCNC(=N)N)C(=O)N[C@@H](Cc1c[nH]cn1)C(=O)N[C@@H](CO)C(=O)N[C@@H](CO)C(=O)N1CCC[C@H]1C(=O)N[C@@H](CCC(=O)O)C(=O)N[C@@H](CC(C)C)C(=O)N[C@@H](CC(C)C)C(=O)N[C@@H](CCCNC(=N)N)C(=O)N[C@@H](CCCNC(=N)N)C(=O)N2` (H-NTDPEQCKVMCYAQRHSSPELLRRCLDQCEKEHD-OH; disulfide 7-29, 11-25), the IC50 in assay [1] was 400 nM.

As to `CC[C@H](C)[C@H](NC(=O)[C@H](CCC(N)=O)NC(=O)[C@H](CCCNC(=N)N)NC(=O)[C@H](CCCCN)NC(=O)[C@@H]1CCCN1)C(=O)N[C@@H](CCC(=O)O)C(=O)N[C@@H](CCCNC(=N)N)C(=O)N[C@H]1CSSC[C@@H](C(=O)N[C@@H](CCC(=O)O)C(=O)N[C@@H](CCC(=O)O)C(=O)N[C@@H](CCC(N)=O)C(=O)N[C@@H](CCC(=O)O)C(=O)N[C@@H](CCC(=O)O)C(=O)N[C@@H](CCCCN)C(=O)N[C@@H](CCCNC(=N)N)C(=O)NCC(=O)N[C@@H](CCC(N)=O)C(=O)NCC(=O)N[C@@H](CC(=O)O)C(=O)O)NC(=O)[C@H](CCC(N)=O)NC(=O)[C@H](CCCNC(=N)N)NC(=O)[C@H](C(C)C)NC(=O)[C@@H]2CSSC[C@H](NC(=O)[C@H](CCC(=O)O)NC(=O)[C@H](CCC(N)=O)NC(=O)[C@H](CCCCN)NC1=O)C(=O)N[C@@H](CCCNC(=N)N)C(=O)N[C@@H](CCC(=O)O)C(=O)N[C@@H](CO)C(=O)N[C@@H](CCCNC(=N)N)C(=O)N[C@@H](CCC(N)=O)C(=O)NCC(=O)N[C@@H](CCC(=O)O)C(=O)N[C@@H](CCC(N)=O)C(=O)N[C@@H](CCC(N)=O)C(=O)N[C@@H](CCC(=O)O)C(=O)N[C@@H](CCCNC(=N)N)C(=O)N[C@@H](CCC(N)=O)C(=O)N2` (H-PKRQIERCKQECRESRQGEQQERQCVRQCEEQEEKRGQGD-OH; disulfide 8-29, 12-25), the inhibition result in the assay listed under Bos taurus is “inactive”.

(Values after ChEMBL document CHEMBL4699531, “Defining the Familial Fold of the Vicilin-Buried Peptide Family” (J Nat Prod, 2020).)
